# Laboratory results as given in PubChem BioAssay AID2060626 (Molecular Pharmacology Branch, DTP, NCI, 2025).
# Test system: 168753-222-R-J1-PDC complex spheroid viability
# Assay: Anticancer human tumor 168753-222-R-J1-PDC patient-derived bladder carcinoma cell line growth inhibition [CLK]
# Conditions: second compound 0.0316 µM; first compound 3.16 µM; stronger effect = lower value
# How it was run: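 Multi-cell-type spheroids combined patient-derived tumor cells with HUVEC endothelial cells and human mesenchymal stem cells. Paired agents were dosed in half-log steps down from about clinical Cmax, or from 10 microM where Cmax was unknown.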
# 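Note: luminescence signal used as surrogate for viable cell amount; viability measured after seven days of drug exposure; 100% = DMSO vehicle control wells.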
row,Structure (SMILES),"viability, T/C"
1,C#Cc1c(F)ccc2cc(O)cc(-c3ncc4c(N5CC6CCC(C5)N6)nc(OCC56CCCN5CC(F)C6)nc4c3F)c12 (stereo unspecified) + CNC(=O)c1ccc(Nc2nc(OC3CCCC3)c3c(-c4ccc5nc(C)oc5c4)c[nH]c3n2)c(OC)c1,105%
2,C=C(F)C(=O)N1CCN(c2nc(OCC3CCCN3C)nc3c2CCN(c2cccc4cccc(Cl)c24)C3)CC1CC#N (stereo unspecified) + CNC(=O)c1ccc(Nc2nc(OC3CCCC3)c3c(-c4ccc5nc(C)oc5c4)c[nH]c3n2)c(OC)c1,110%
3,CC(CO)NC(=O)c1cc(-c2ccc(Cl)cc2)nn(-c2cnn(C)c2)c1=O (stereo unspecified) + CNC(=O)c1ccc(Nc2nc(OC3CCCC3)c3c(-c4ccc5nc(C)oc5c4)c[nH]c3n2)c(OC)c1,97.2%
4,CC(Nc1ccc2c(c1)OCCn1cc(N3C(=O)OCC3C(F)F)nc1-2)C(N)=O (stereo unspecified) + CNC(=O)c1ccc(Nc2nc(OC3CCCC3)c3c(-c4ccc5nc(C)oc5c4)c[nH]c3n2)c(OC)c1,13.3%

# Same assay, conditions: second compound 0.0316 µM; first compound 10 µM; stronger effect = lower value
row,Structure (SMILES),"viability, T/C"
1,C#Cc1c(F)ccc2cc(O)cc(-c3ncc4c(N5CC6CCC(C5)N6)nc(OCC56CCCN5CC(F)C6)nc4c3F)c12 (stereo unspecified) + CNC(=O)c1ccc(Nc2nc(OC3CCCC3)c3c(-c4ccc5nc(C)oc5c4)c[nH]c3n2)c(OC)c1,73.1%
2,C=C(F)C(=O)N1CCN(c2nc(OCC3CCCN3C)nc3c2CCN(c2cccc4cccc(Cl)c24)C3)CC1CC#N (stereo unspecified) + CNC(=O)c1ccc(Nc2nc(OC3CCCC3)c3c(-c4ccc5nc(C)oc5c4)c[nH]c3n2)c(OC)c1,52.8%
3,CC(CO)NC(=O)c1cc(-c2ccc(Cl)cc2)nn(-c2cnn(C)c2)c1=O (stereo unspecified) + CNC(=O)c1ccc(Nc2nc(OC3CCCC3)c3c(-c4ccc5nc(C)oc5c4)c[nH]c3n2)c(OC)c1,88.2%
4,CC(Nc1ccc2c(c1)OCCn1cc(N3C(=O)OCC3C(F)F)nc1-2)C(N)=O (stereo unspecified) + CNC(=O)c1ccc(Nc2nc(OC3CCCC3)c3c(-c4ccc5nc(C)oc5c4)c[nH]c3n2)c(OC)c1,13%

# Same assay, conditions: second compound 0.1 µM; first compound 0.00316 µM; stronger effect = lower value
row,Structure (SMILES),"viability, T/C"
1,COc1c(OCCCN2CCOCC2)ccc2c3n(c(=NC(=O)c4cnc(N)nc4)nc12)CCN3 + CNC(=O)c1ccc(Nc2nc(OC3CCCC3)c3c(-c4ccc5nc(C)oc5c4)c[nH]c3n2)c(OC)c1,87.3%

# Same assay, conditions: second compound 0.1 µM; first compound 0.01 µM; stronger effect = lower value
row,Structure (SMILES),"viability, T/C"
1,COc1c(OCCCN2CCOCC2)ccc2c3n(c(=NC(=O)c4cnc(N)nc4)nc12)CCN3 + CNC(=O)c1ccc(Nc2nc(OC3CCCC3)c3c(-c4ccc5nc(C)oc5c4)c[nH]c3n2)c(OC)c1,60.8%

# Same assay, conditions: second compound 0.1 µM; first compound 0.0316 µM; stronger effect = lower value
row,Structure (SMILES),"viability, T/C"
1,C#Cc1c(F)ccc2cc(O)cc(-c3ncc4c(N5CC6CCC(C5)N6)nc(OCC56CCCN5CC(F)C6)nc4c3F)c12 (stereo unspecified) + CNC(=O)c1ccc(Nc2nc(OC3CCCC3)c3c(-c4ccc5nc(C)oc5c4)c[nH]c3n2)c(OC)c1,99.1%
2,C=C(F)C(=O)N1CCN(c2nc(OCC3CCCN3C)nc3c2CCN(c2cccc4cccc(Cl)c24)C3)CC1CC#N (stereo unspecified) + CNC(=O)c1ccc(Nc2nc(OC3CCCC3)c3c(-c4ccc5nc(C)oc5c4)c[nH]c3n2)c(OC)c1,94.1%
3,CC(CO)NC(=O)c1cc(-c2ccc(Cl)cc2)nn(-c2cnn(C)c2)c1=O (stereo unspecified) + CNC(=O)c1ccc(Nc2nc(OC3CCCC3)c3c(-c4ccc5nc(C)oc5c4)c[nH]c3n2)c(OC)c1,102%
4,CC(Nc1ccc2c(c1)OCCn1cc(N3C(=O)OCC3C(F)F)nc1-2)C(N)=O (stereo unspecified) + CNC(=O)c1ccc(Nc2nc(OC3CCCC3)c3c(-c4ccc5nc(C)oc5c4)c[nH]c3n2)c(OC)c1,83.7%
5,COc1c(OCCCN2CCOCC2)ccc2c3n(c(=NC(=O)c4cnc(N)nc4)nc12)CCN3 + CNC(=O)c1ccc(Nc2nc(OC3CCCC3)c3c(-c4ccc5nc(C)oc5c4)c[nH]c3n2)c(OC)c1,14.7%

# Same assay, conditions: second compound 0.1 µM; first compound 0.1 µM; stronger effect = lower value
row,Structure (SMILES),"viability, T/C"
1,C#Cc1c(F)ccc2cc(O)cc(-c3ncc4c(N5CC6CCC(C5)N6)nc(OCC56CCCN5CC(F)C6)nc4c3F)c12 (stereo unspecified) + CNC(=O)c1ccc(Nc2nc(OC3CCCC3)c3c(-c4ccc5nc(C)oc5c4)c[nH]c3n2)c(OC)c1,103%
2,C=C(F)C(=O)N1CCN(c2nc(OCC3CCCN3C)nc3c2CCN(c2cccc4cccc(Cl)c24)C3)CC1CC#N (stereo unspecified) + CNC(=O)c1ccc(Nc2nc(OC3CCCC3)c3c(-c4ccc5nc(C)oc5c4)c[nH]c3n2)c(OC)c1,103%
3,CC(CO)NC(=O)c1cc(-c2ccc(Cl)cc2)nn(-c2cnn(C)c2)c1=O (stereo unspecified) + CNC(=O)c1ccc(Nc2nc(OC3CCCC3)c3c(-c4ccc5nc(C)oc5c4)c[nH]c3n2)c(OC)c1,99.6%
4,CC(Nc1ccc2c(c1)OCCn1cc(N3C(=O)OCC3C(F)F)nc1-2)C(N)=O (stereo unspecified) + CNC(=O)c1ccc(Nc2nc(OC3CCCC3)c3c(-c4ccc5nc(C)oc5c4)c[nH]c3n2)c(OC)c1,60.5%
5,COc1c(OCCCN2CCOCC2)ccc2c3n(c(=NC(=O)c4cnc(N)nc4)nc12)CCN3 + CNC(=O)c1ccc(Nc2nc(OC3CCCC3)c3c(-c4ccc5nc(C)oc5c4)c[nH]c3n2)c(OC)c1,11.1%

# Same assay, conditions: second compound 0.1 µM; first compound 0.316 µM; stronger effect = lower value
row,Structure (SMILES),"viability, T/C"
1,C#Cc1c(F)ccc2cc(O)cc(-c3ncc4c(N5CC6CCC(C5)N6)nc(OCC56CCCN5CC(F)C6)nc4c3F)c12 (stereo unspecified) + CNC(=O)c1ccc(Nc2nc(OC3CCCC3)c3c(-c4ccc5nc(C)oc5c4)c[nH]c3n2)c(OC)c1,101%
2,C=C(F)C(=O)N1CCN(c2nc(OCC3CCCN3C)nc3c2CCN(c2cccc4cccc(Cl)c24)C3)CC1CC#N (stereo unspecified) + CNC(=O)c1ccc(Nc2nc(OC3CCCC3)c3c(-c4ccc5nc(C)oc5c4)c[nH]c3n2)c(OC)c1,83.9%
3,CC(CO)NC(=O)c1cc(-c2ccc(Cl)cc2)nn(-c2cnn(C)c2)c1=O (stereo unspecified) + CNC(=O)c1ccc(Nc2nc(OC3CCCC3)c3c(-c4ccc5nc(C)oc5c4)c[nH]c3n2)c(OC)c1,85.7%
4,CC(Nc1ccc2c(c1)OCCn1cc(N3C(=O)OCC3C(F)F)nc1-2)C(N)=O (stereo unspecified) + CNC(=O)c1ccc(Nc2nc(OC3CCCC3)c3c(-c4ccc5nc(C)oc5c4)c[nH]c3n2)c(OC)c1,18.3%
5,COc1c(OCCCN2CCOCC2)ccc2c3n(c(=NC(=O)c4cnc(N)nc4)nc12)CCN3 + CNC(=O)c1ccc(Nc2nc(OC3CCCC3)c3c(-c4ccc5nc(C)oc5c4)c[nH]c3n2)c(OC)c1,7.84%

# Same assay, conditions: second compound 0.1 µM; first compound 1 µM; stronger effect = lower value
row,Structure (SMILES),"viability, T/C"
1,C#Cc1c(F)ccc2cc(O)cc(-c3ncc4c(N5CC6CCC(C5)N6)nc(OCC56CCCN5CC(F)C6)nc4c3F)c12 (stereo unspecified) + CNC(=O)c1ccc(Nc2nc(OC3CCCC3)c3c(-c4ccc5nc(C)oc5c4)c[nH]c3n2)c(OC)c1,101%
